Test results from PMC7156724, “Potent BRD4 inhibitor suppresses cancer cell-macrophage interaction” (Nature Communications, 2020).
Values joined by “and” are separate entries in the source; they are usually repeats but may differ in a detail not shown here. Equal values may be shown once.

What was measured:
[1] = test system: A375 human melanoma; test: A375 human melanoma xenograft tumor growth; format: in vivo, mouse
Excerpt: PO, oral administration; QD, once daily; BID, twice daily. b–d Tumor growth curves for A2780 ovarian tumor (n = 5) (b), TMD8 large B cell lymphoma (n = 6) (c), and B16F10 melanoma (n = 5) (d) bearing mice treated with the indicated compounds once daily for 11-21 days. e, f Tumor growth curves for A375 melanoma (n = 6) (e), and patient-derived xenograft (PDX) of melanoma (n = 5) (f) bearing mice treated with the indicated compounds once daily (5 days on, 2 days off) for 21 days. For d–f, NHWD-870 used is NHWD-870-HCl synthesized using Suzuki coupling route. Data are presented as mean ± SEM in (a, b, d, f) and mean + SEM in (c, e). p values were calculated using two-tailed, unpaired t tests. *p < 0.05; **p < 0.01; ***p < 0.001. Source data are provided as a Source Data file.
4–6 weeks old female BALB/c nude mice were used for most experiments, with the exception of 6–8 weeks old female C57BL/6 mice were used for B16F10 experiments, and 6–8 weeks old male BALB/c nude mice and SD rats were used for pharmacokinetic experiments. All animals were purchased from Shanghai SIPPR-Bk Lab Animal Co., Ltd. All animals were housed under a regimen of 12 h light/12 h dark cycles and specific pathogen-free conditions. 5×10^6 NCI-H526, ES-2, MDA-MB231, A2780, A375, B16F10, and TMD-8 cells (0.1 ml) were injected subcutaneously into female nude mice. The melanoma patient-derived xenograft model was derived from a human melanoma sample (BRAF, NARS and NF1 wild type, and p53 mutant) removed from a patient in Xiangya Hospital. Surgically removed tumor fragments were implanted subcutaneously into female NSG mice. When the tumors grew to ~1000 mm^3, they were harvested and cryopreserved or immediately re-implanted for expansion or experiments. Mouse body weight and tumor sizes were measured every 3 days. Once the tumors grew to 150–200 mm^3, mice were treated with the compounds as described in the Figures. 1 × 10^6 A2780 cells (1 ml) were injected into the abdominal cavity of nude mice. Ascitic volume and tumor weight were measured by an electronic balance. All the procedures were evaluated and approved by the Institutional Animal Care and Use Committee of Central South University and Yale University. […]
We apologize for not clearly labeling the experiments using compounds synthesized using Suzuki coupling method. In the revised manuscript, we modified the text to clearly mark the animal models in Fig 3d-f were tested using NHWD-870 synthesized using Suzuki […]
compared the activity of NHWD-870 synthesized using Stille coupling route with the NHWD-870 synthesized from Suzuki coupling route (Reviewer Figure 1). […]
activity and possible toxicity were identical.
Reviewer Figure 1 NHWD-870 synthesized through Stille or Suzuki route has similar properties in vivo. Tumor bearing mice were treated with 2mg/kg of the indicated compounds, orally administrated once daily for 21 days. Shown are tumor growth curves (a) and body weight change (b) for A375 melanoma bearing mice. […]
986158 in terms of potency, but apart from with the A375 melanocyte cell line, the advance seems relatively moderate. With such similar compounds, the pharmacokinetic properties and ability to accumulate at the desired site is often more important. Figure S6d (prev. Fig. 3d) in the previous

[2] = test system: H526 tumors; test: Immunofluorescent staining of cleaved caspase 3 and Ki67 in H526 tumors; format: in vivo, mouse; details: treated H526 tumors, independent images
Protocol: Immunofluorescence staining of tumor sections was performed according to the manufacturer’s instructions. Slides were imaged using a Zeiss Axiovert 200 fluorescence microscope (Carl Zeiss MicroImaging; Thornwood, NY), and images were captured using Openlab3 software (Imprecision, Lexington, MA). Cleaved caspase 3, Ki67, CSF1, and CD68 positive cells were counted with ImageJ version 1.52s[58].
Supplementary Figure 10. NHWD-870 increased tumor apoptosis and inhibite d tumor proliferation.
(a,b) Immunofluorescent staining of cleaved caspase 3 (apoptotic cells, red) and E-Cadherin (cancer cells, […]
green) in vehicle, NHWD-870 or BMS-986158 treated H526 tumors from Figure 4a. Shown are […]
representative images of cleaved caspase 3 positive cells (a) and quantification of cleaved caspase 3 positive […]
cells (b). Scale bar is 30 μm. Data are presented as mean ± SEM from 6 independent images. p values were […]
calculated using two-tailed, unpaired t tests. **, p<0.01; ***, p<0.001. (c,d) Immunofluorescent staining of […]
Ki67 (proliferating cells, red) and E-Cadherin (cancer cells, green) in vehicle, NHWD-870 or BMS-986158 […]
treated H526 tumors from (Figure 4a). Shown are representative images of Ki67 positive cells (c) and […]
quantification of Ki67 positive cells (d). Scale bar is 30 μm. […]
independent images. p values were calculated using two-tailed, unpaired t tests. *, p<0.05; ***, p<0.001. […]

[3] = test system: NCI-H211 small cell lung cancer (SCLC) cells; test: AlamarBlue assay, NCI-H211; format: cell-based; details: for Cellular activity in SCLCs (H211), alamarBlue: Fig.1e, replicates
In short: (§1)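 BRD4 (BD1+BD2) binding to acetylated histone H4 was measured with a TR-FRET kit per the kit protocol. For the AlamarBlue assays, MDA-MB231, NCI-H211 and A375 cells were plated at ~30% confluence, adhered overnight and treated. Resazurin (0.3 mg/ml reagent) was added for 18 h and fluorescence read at ex 530/em 590 nm.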

[4] = Body weight change of H526 SCLC tumor bearing mice; details: for Mouse body weight changes (%) from Day 0: 3mg/kg, QDx21D, 3 mg/kg
[5] = test system: MDA-MB231 triple negative breast cancer (TNBC) cells; test: AlamarBlue assay, MDA-MB231; format: cell-based, human; details: for Cellular activity in TNBCs (MDA-MB231), alamarBlue: Fig.1f, replicates
In short: as §1

Q: Which results are given for `Cc1nnn(C)c1-c1cnc2c3c4cnn(C)c4ccc3n([C@H](c3ccccc3)C3CCOCC3)c2c1` [NHWD-870]?
A: effect on tumor growth ([1]; A375 human melanoma, once daily (5 days on, 2 days off) 21 days, NHWD-870-HCl): very strong tumor inhibitive effects; activity and possible toxicity, Stille versus Suzuki coupling route ([1]; A375 melanoma bearing mice, 2mg/kg orally once daily for 21 days): identical; % of KI67 (Ki67 positive cells) [2]: 10% and 8% and 13% and 11% and 6%; fold increased potency versus BMS-986158 ([3]; Fig 1e, f): 3 fold; Cellular activity in SCLCs (H211), alamarBlue ([3]; concentration 0.0169701): 15.41 and 2.82; Cellular activity in SCLCs (H211), alamarBlue ([3]; concentration 0.0398488): 10.96 and 4.35; Cellular activity in SCLCs (H211), alamarBlue ([3]; concentration 0.137272): 28.76 and 26.98; Cellular activity in SCLCs (H211), alamarBlue ([3]; concentration 0.614394): 86.83 and 87.53; Cellular activity in SCLCs (H211), alamarBlue ([3]; concentration 1.09152): 89.61 and 89.15; Cellular activity in SCLCs (H211), alamarBlue ([3]; concentration 1.56864): 89.26 and 88.73; Cellular activity in SCLCs (H211), alamarBlue ([3]; concentration 2.04576): 89.83 and 90.11; Cellular activity in SCLCs (H211), alamarBlue ([3]; concentration 3): 91.32 and 90.79; Cellular activity in SCLCs (H211), alamarBlue ([3]; concentration column prints 2.52288): 91.56 and 90.89; IC50 ([3]; Homo sapiens, NCI-H211, 72 h, 72 h treatment, nM, read-out: IC50, cellular activity in NCI-H211 (alamarBlue)): 2 nM; fold more potent than JQ1 ([3]; NCI-H211 and MDA-MB231 cells): about 50 fold; Body weight change (%) ([4]; 3mg/kg,QD, day 0 and day 20 or the last available data point, individual mice): -7.583% and -7.971% and -2.299% and 0.4517%; Mouse body weight changes (%) from Day 0 ([4]; Day 3, individual mice): -0.08% and -2.62% and -1.34% and 1.57% and 0.13% and 1.52%; Mouse body weight changes (%) from Day 0 ([4]; Day 7, individual mice): -7.05% and -0.52% and -4.19% and 1.94% and -3.62% and 0.82%; Mouse body weight changes (%) from Day 0 ([4]; Day 10, individual mice): -10.82% and -3.48% and 3.84% and -1.13% and -5.35% and 3.04%; Mouse body weight changes (%) from Day 0 ([4]; Day 14, individual mice): -1.11% and -16.35% and -6.33% and 0.59% and -10.57% and -3.67%; Mouse body weight changes (%) from Day 0 ([4]; Day 17, individual mice): 3.90% and -4.84% and -5.58% and -1.24% and -10.06% and -0.93%; Mouse body weight changes (%) from Day 0 ([4]; Day 20, individual mice): 0.45% and -8.20% and -7.58% and -7.97% and -11.87% and -2.30%; body weight loss ([4]; H526 SCLC tumor bearing mice, 3mg/kg QD): about 6%; Cellular activity in TNBCs (MDA-MB231), alamarBlue ([5]; concentration 0.15): 49.81 and 46.95; Cellular activity in TNBCs (MDA-MB231), alamarBlue ([5]; concentration 0.6): 80.07 and 80.02; Cellular activity in TNBCs (MDA-MB231), alamarBlue ([5]; concentration 1): 86.71 and 86.28; Cellular activity in TNBCs (MDA-MB231), alamarBlue ([5]; concentration 1.5): 87.88 and 89.64; Cellular activity in TNBCs (MDA-MB231), alamarBlue ([5]; concentration 2): 89.68 and 91.47; Cellular activity in TNBCs (MDA-MB231), alamarBlue ([5]; concentration 2.5): 90.92 and 92.15; Cellular activity in TNBCs (MDA-MB231), alamarBlue ([5]; concentration 3): 92.14 and 92.46; Cellular activity in TNBCs (MDA-MB231), alamarBlue ([5]; concentration -0.3): 13.41 and 13.25; Cellular activity in TNBCs (MDA-MB231), alamarBlue ([5]; concentration -0.9): 6.42 and 8.37; IC50 ([5]; Homo sapiens, MDA-MB-231, 72 h, 72 h treatment, nM, read-out: IC50, cellular activity in MDA-MB231 (alamarBlue)): 1.6 nM
